Measured values as given in article PMC3169566, “Rationally Designed Interfacial Peptides Are Efficient In Vitro Inhibitors of HIV-1 Capsid Assembly with Antiviral Activity” (PLoS ONE, 2011).
Peptide text beside a SMILES is read from it.

What was measured:
[1] = Solubility under the conditions of the NMR experiments; assay type: physicochemical; conditions: aqueous buffer, long incubations at a relatively high temperature, 50 mM phosphate buffer pH 7.0, read-out: Concentration at which the peptide remained fully soluble
Procedure: NMR spectra were acquired at 20°C on a Bruker Avance DRX-500 spectrometer (Bruker GmbH, Germany) equipped with a triple resonance probe and z-pulse field gradients. Sodium trimethylsilyl [2,2,3,3-^2H4] propionate (Sigma) was used as the internal chemical shift reference in the homonuclear experiments. All experiments were carried out in 50 mM phosphate buffer pH 7.0. Assignments of the heteronuclear single quantum coherence (HSQC) NMR spectra were those previously obtained for the monomeric CTD [43], [44].
We first analyzed whether the CAC1-derived peptides CAC1C and CAC1M had any tendency to self-associate. […] The hydrodynamic radius (Rh) of the three peptides was similar (Table 1).

[2] = molecular target: T1, CTD (C-terminal domain of HIV-1 capsid protein CA) (Human immunodeficiency virus type 1 group M subtype B, UniProt P04591); experiment: CTD binding by fluorescence titration; conditions: 20 µM wild-type dimeric CTD, 25°C, 50 mM phosphate buffer pH 7.0, 1:1 binding isotherm, read-out: CTD-binding K D
T1 construct: CA protein and the isolated CTD (either unlabelled or labelled) were purified as described previously; made in house
Procedure: Spectra were collected on a Cary Eclipse spectrofluorimeter (Varian, CA, USA). A concentration of 20 µM CTD and increasing peptide concentrations were used for titration experiments carried out at 25°C in 50 mM phosphate buffer pH 7.0. Excitation wavelength was 280 nm or 295 nm, and emission fluorescence was collected between 300 nm and 400 nm. The excitation and emission slits were set to 5 nm. The response time was 1 s. The dissociation constant of each complex was calculated by fitting the changes observed either in: (i) the fluorescence intensity at a particular wavelength; or (ii) the value of the average energy <λ> [42] for a fixed CTD concentration versus the concentration of added peptide as described.

HIV-1 capsid protein CA = molecular target: T2, HIV-1 capsid protein CA (Human immunodeficiency virus type 1 group M subtype B, UniProt P04591); experiment: CA polymerization in vitro (turbidity at 350 nm) with Ficoll-70 crowding agent; assay type: biochemical; conditions: 20 µM CA
T2 construct: CA protein and the isolated CTD (either unlabelled or labelled) were purified as described previously; made in house
Procedure: Assembly reactions were carried out as described previously, [53] with some modifications. In general, the polymerization mixtures contained 50 mM sodium phosphate buffer pH 7.4, 2.25 M NaCl, 20 µM CA, and 100 g/l Ficoll-70 (GE HealthCare) as a macromolecular crowding agent. Where indicated, Ficoll-70 was omitted and the final CA concentration was raised to 46 µM. The experiments were initiated by introducing an appropriate volume of a CA solution in 50 mM phosphate buffer into a spectrophotometer cuvette (10-mm pathlength, 20 mm^2 internal section), and the assembly reaction was triggered by adding the appropriate volume of a solution containing 4 M NaCl, 179 g/l Ficoll-70 in 50 mM sodium phosphate buffer pH 7.4, to get the final concentrations desired for each component in a final volume of 500 µl, followed by rapid mixing by repeated inversion of the cell. The pH of the final reaction mixture was checked in a test sample. For inhibition assays, CA was mixed with the appropriate amounts of the peptides, and incubated for 30 minutes before triggering the reaction as indicated above. The time-dependent increase in the optical density at 350 nm as a measure of the light scattered by the assembled particles was monitored at 25°C using a UV-1603 spectrophotometer (Shimadzu, Japan), with data points collected every six seconds. Traces of the variation in the turbidity were analyzed as described previously, [53].

HIV-1 strain HXB2 = experiment: Inhibition of HIV-1 production and infection in cultured cells (p24 antigen); assay type: cell-based; conditions: U87-CD4-CXCR4 cells, Chariot-mediated transport
Procedure: U87-CD4-CXCR4 cells from cultured monolayers were collected using 0.25% trypsin and resuspended in DMEM supplemented with 10% FBS (without antibiotics). Cells were seeded in 96-well plates at a density of 3.5×10^4 cells/well and incubated for 24 h. Then, the cells were incubated as described above with mixtures of the corresponding peptides and the Chariot peptide at the appropriate concentrations. After three hours of incubation, the cells were washed with PBS and infected with HIV-1 at a multiplicity of infection of 0.0015 (0.0015 TCID50/cell). After incubation for 2 h at 37°C, the cells were washed with PBS and DMEM supplemented with 10% FBS, 0.5 mg/ml geneticin and 1 µg/ml puromycin were added, and the infected cells were further incubated at 37°C. Viral replication was quantified by measuring HIV-1 CA (p24 antigen) production in the culture supernatant 72 h after infection, using an enzyme-linked immunoassay (INNOTEST HIV-antigen, Innogenetics).

U87-CD4-CXCR4 cells [3] = experiment: Transport of peptides into cells (fluorescence microscopy, flow cytometry); assay type: cell-based, Human; conditions: rhodamine-labelled peptides in complex with Chariot 1:1, 3 h at 37°C
Procedure: To transport the peptides into NB324K or U87-CD4-CXCR4 cells a commercial cell-penetrating peptide (Chariot, Active Motif) was used, according to the manufacturer's recommendations. For fluorescence microscopy analyses, Chariot-peptide binding was accomplished by incubating a mixture containing between 5 µg and 50 µg of either FITC-labelled peptide or rhodamine-labelled peptide and the Chariot peptide at a 1∶1 molar ratio in 100 µl aliquots. Each 100 µl aliquot of the preincubated mixture was added to one well of a 24-well plate containing NB324K or U87-CD4-CXCR4 seeded the previous day (5·10^4 and 1.5·10^5 cells/well, respectively) and 100 µl of serum-free DMEM medium were added. The cells were incubated for 1–3 h, 800 µl DMEM containing 10% FBS were added, and incubation was continued for 1 h. Cells were fixed with a 1∶1 methanol∶acetone solution, their nucleus were stained with 4′,6-diamidino-2-phenylindol dihydrochloride (DAPI, Calbiochem), and cells were examined and imaged using an Axiovert200 (Zeiss) fluorescence microscope and/or a LSM-510 (Zeiss) confocal fluorescence microscope.
FITC-labelled peptides were transported into NB324K or U87-CD4-CXCR4 cells as described above. […] The resuspended cells were analyzed in a FACSCalibur flow cytometer (Becton Dickinson, USA).

U87-CD4-CXCR4 cells [4] = conditions: without cell-penetrating peptide; cited from earlier work
[5] = peptide:CA molar ratio of 5, 100 g/l Ficoll-70

CSCC[C@H](NC(=O)[C@H](Cc1c[nH]c2ccccc12)NC(=O)[C@H](C)NC(=O)[C@H](CCCCN)NC(=O)[C@@H](NC(=O)[C@H](CO)NC(=O)[C@H](CO)NC(=O)[C@H](CO)NC(=O)[C@H](C)NC(=O)[C@H](CO)NC(=O)[C@@H](N)CCC(=O)O)C(C)C)C(=O)N[C@H](C(=O)N[C@@H](CCC(=O)O)C(=O)N[C@H](C(=O)N[C@@H](CC(C)C)C(=O)N[C@@H](CC(C)C)C(=O)N[C@H](C(=O)N[C@@H](CCC(N)=O)C(=O)N[C@@H](CC(N)=O)C(=O)N[C@@H](C)C(N)=O)C(C)C)[C@@H](C)O)[C@@H](C)O [CAC1C] (H-ESASSSVKAWMTETLLVQNA-NH2)
solubility [1]: ≥ 200 µM
Kd [2]: 19 ± 8 µM

ITFEDLLDYYGP [CAI]
Inhibition of in vitro assembly of HIV-1 capsid-like particles, single inhibitor (HIV-1 capsid protein CA; 100 g/l Ficoll-70, 2.25 M NaCl, pH 7.4, 25°C, 30 min preincubation, inhibitor:CA molar ratios up to 10 (CAI 0.1-0.5)): very efficient
Inhibitory activity of single peptides on HIV-1 production ex vivo (HIV-1 strain HXB2; MOI 0.0015, p24 at 72 h, H4 tested up to close to 2 mM): at most a weak inhibitory activity
Peptide concentration required for weak inhibitory activity on HIV-1 production ex vivo (HIV-1 strain HXB2; p24 at 72 h): > 1 mM
Chariot-mediated transport of peptides into HIV-1-susceptible cells (U87-CD4-CXCR4 cells [3]): had been achieved
Ability of the peptide to penetrate cells (U87-CD4-CXCR4 cells [4]): unable to penetrate cells

CSCC[C@H](NC(=O)[C@H](Cc1c[nH]c2ccccc12)NC(=O)[C@H](C)NC(=O)[C@H](CCCCN)NC(=O)[C@@H](NC(=O)[C@H](CO)NC(=O)[C@H](CO)NC(=O)[C@H](C)NC(=O)[C@H](C)NC(=O)[C@H](CO)NC(=O)[C@H](CCC(=O)O)NC(=O)[C@@H](N)CO)C(C)C)C(=O)N[C@H](C(=O)N[C@@H](CCC(=O)O)C(=O)N[C@H](C(=O)N[C@@H](CC(C)C)C(=O)N[C@@H](CC(C)C)C(=O)N[C@H](C(=O)N[C@@H](C)C(=O)N[C@@H](CC(N)=O)C(=O)N[C@H](C(=O)N[C@@H](CO)C(=O)N[C@@H](CO)C(N)=O)[C@@H](C)O)C(C)C)[C@@H](C)O)[C@@H](C)O [CAC1M] (H-SESAASSVKAWMTETLLVANTSS-NH2)
solubility [1]: ≥ 200 µM
Higher reduction in polymerization rate compared to CAC1 (HIV-1 capsid protein CA; [5]): ~30%
Higher reduction in total capsid production compared to CAC1 (HIV-1 capsid protein CA; [5]): about 20%
Chariot-mediated transport of peptides into HIV-1-susceptible cells (U87-CD4-CXCR4 cells [3]): had been achieved
Kd [2]: 8 ± 1 µM
